Reference: article doi:10.1101/2024.08.16.608276v1, “The kinetoplastid kinetochore protein KKT23 acetyltransferase is a structural homolog of GCN5 that acetylates the histone H2A C-terminal tail” (biorxiv, 2024)

Biological target: T1, KKT23^2–348 (Trypanosoma brucei, UniProt Q38AU6)
T1 construct: gene Tb10.70.0180; full-length recombinant protein (residues 2-348), E. coli, His-tag cut by TEV, monomer, calculated 39 kDa; strain printed for the cell lines only
T1 sequence (Q38AU6 2-348): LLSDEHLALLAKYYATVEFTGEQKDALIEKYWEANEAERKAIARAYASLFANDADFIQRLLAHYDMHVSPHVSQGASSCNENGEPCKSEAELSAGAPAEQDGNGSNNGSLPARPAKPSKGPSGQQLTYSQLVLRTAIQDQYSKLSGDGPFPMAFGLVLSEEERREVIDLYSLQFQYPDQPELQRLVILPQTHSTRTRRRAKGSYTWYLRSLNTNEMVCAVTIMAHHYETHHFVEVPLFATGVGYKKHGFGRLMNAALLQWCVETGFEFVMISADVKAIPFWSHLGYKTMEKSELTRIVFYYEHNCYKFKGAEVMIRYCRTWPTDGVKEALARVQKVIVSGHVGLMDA
Experiment: histone acetyltransferase assay, anti-acetyl-lysine immunoblot and mass spectrometry
Format: biochemical
Conditions: co-substrate reconstituted T. brucei nucleosomes (H2A C-terminal tail); up to 200 uM acetyl-CoA; pH 8.0, 30 C, 1 h

## CC(=O)SCCNC(=O)CCNC(=O)[C@H](O)C(C)(C)COP(=O)(O)OP(=O)(O)OC[C@H]1O[C@@H](n2cnc3c(N)ncnc32)[C@H](O)[C@@H]1OP(=O)(O)O [acetyl coenzyme A]
  histone acetyltransferase assay, anti-acetyl-lysine immunoblot and mass spectrom: recombinant KKT23 was incubated with acetyl-CoA and nucleosomes reconstituted using either T. brucei or H. sapiens
